Here are results for 24 molecules from EP4667458A1 (Kanaph Therapeutics Inc., priority 2023, dated 2024).

In one experiment the target is T1, KRAS^G12C::SOS1 (Homo sapiens, UniProt Q07889).
T1 sequence (Q07889 1-1333): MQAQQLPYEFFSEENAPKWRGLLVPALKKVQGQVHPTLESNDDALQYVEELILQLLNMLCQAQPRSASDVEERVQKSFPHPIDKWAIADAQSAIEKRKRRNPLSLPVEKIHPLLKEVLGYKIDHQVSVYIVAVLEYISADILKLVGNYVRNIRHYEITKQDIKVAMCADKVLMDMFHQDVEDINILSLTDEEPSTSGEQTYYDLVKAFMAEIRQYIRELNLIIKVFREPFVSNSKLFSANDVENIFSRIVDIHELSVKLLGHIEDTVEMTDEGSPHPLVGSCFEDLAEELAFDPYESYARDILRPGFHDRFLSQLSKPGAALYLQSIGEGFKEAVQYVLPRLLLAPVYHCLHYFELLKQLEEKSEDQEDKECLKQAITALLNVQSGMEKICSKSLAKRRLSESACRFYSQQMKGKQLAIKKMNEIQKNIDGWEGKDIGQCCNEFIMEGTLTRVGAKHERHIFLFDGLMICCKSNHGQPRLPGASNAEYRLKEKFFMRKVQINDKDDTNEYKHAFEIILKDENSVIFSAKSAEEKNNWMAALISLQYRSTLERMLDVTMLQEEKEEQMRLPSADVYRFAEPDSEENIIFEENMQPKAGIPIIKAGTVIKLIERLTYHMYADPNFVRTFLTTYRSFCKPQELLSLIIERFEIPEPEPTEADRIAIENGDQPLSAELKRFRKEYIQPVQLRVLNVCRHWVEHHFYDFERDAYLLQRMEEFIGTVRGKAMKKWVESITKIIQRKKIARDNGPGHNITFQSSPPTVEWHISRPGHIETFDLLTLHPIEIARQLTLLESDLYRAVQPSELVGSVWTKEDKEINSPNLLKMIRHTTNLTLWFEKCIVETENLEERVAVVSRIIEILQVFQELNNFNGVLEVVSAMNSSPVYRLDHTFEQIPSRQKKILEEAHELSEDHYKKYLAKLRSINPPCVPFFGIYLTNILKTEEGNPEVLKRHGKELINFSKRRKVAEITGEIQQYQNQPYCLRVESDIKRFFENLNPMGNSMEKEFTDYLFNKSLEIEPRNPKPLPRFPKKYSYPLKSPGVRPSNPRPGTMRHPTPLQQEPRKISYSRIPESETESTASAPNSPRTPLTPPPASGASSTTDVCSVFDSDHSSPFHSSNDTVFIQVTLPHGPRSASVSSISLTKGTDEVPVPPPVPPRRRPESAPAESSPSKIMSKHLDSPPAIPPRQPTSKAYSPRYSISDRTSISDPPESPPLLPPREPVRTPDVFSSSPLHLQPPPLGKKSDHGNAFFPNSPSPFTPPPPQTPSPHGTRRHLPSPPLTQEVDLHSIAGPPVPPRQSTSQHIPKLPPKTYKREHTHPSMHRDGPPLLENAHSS
Nature of the experiment: KRAS G12C::SOS1 protein-protein interaction (PPI) inhibition assay (HTRF binding kit).
Settings: not given
For `CC(=O)Nc1cc(=O)n(-c2ccccc2F)nc1C(=O)N[C@H](C)c1cccc(C(F)(F)COC(C)=O)c1F` [Example 380, [2-[3-[(1R)-1-[[4-acetamido-1-(2-fluorophenyl)-6-oxo-pyridazine-3-carbonyl]amino]ethyl]-2-fluoro-phenyl]-2,2-difluoro-ethyl] acetate], the IC50 was under 1000 nM.

In turn, `C[C@@H](NC(=O)c1nn(-c2ccccc2)c(=O)cc1-c1ccccc1)c1cc(N)cc(C(F)(F)F)c1` [Example 368, N-[(1R)-1-[3-amino-5-(trifluoromethyl)phenyl]ethyl]-6-oxo-1,4-diphenyl-pyridazine-3-carboxamide] registered an IC50 of under 1000 nM.

Molecule `C[C@@H](NC(=O)c1ccc(=O)n(-c2ccccc2F)n1)c1ccc(-c2cc(F)ccc2CNCCO)s1` [Example 300, N-[(1R)-1-[5-[5-fluoro-2-[(2-hydroxyethylamino)methyl]phenyl]-2-thienyl]ethyl]-1-(2-fluorophenyl)-6-oxo-pyridazine-3-carboxamide] displayed an IC50 of under 1000 nM.

`CCn1cc(-n2nc(C(=O)N[C@H](C)c3ccc(-c4cc(Cl)ccc4CNC)s3)ccc2=O)cn1` [Example 405] displayed an IC50 of under 1000 nM.

As for `COc1ccc(-n2nc(C(=O)N[C@H](C)c3cc(N)cc(C(F)(F)F)c3)c(C3CC3)cc2=O)c(F)c1` [Example 367, N-[(1R)-1-[3-amino-5-(trifluoromethyl)phenyl]ethyl]-4-cyclopropyl-1-(2-fluoro-4-methoxy-phenyl)-6-oxo-pyridazine-3-carboxamide], the IC50 was 1000 to 10000 nM.

For the molecule `C[C@@H](NC(=O)c1ccc(=O)n(-c2cccc(F)c2F)n1)c1cccc(C(F)(F)CO)c1F` [Example 355, N-[(1R)-1-[3-(1,1-difluoro-2-hydroxy-ethyl)-2-fluoro-phenyl]ethyl]-1-(2,3-difluorophenyl)-6-oxo-pyridazine-3-carboxamide], the IC50 is under 1000 nM.

In the case of `COCCNC(=O)c1cccc(-n2nc(C(=O)N[C@H](C)c3cc(N)cc(C(F)(F)F)c3)ccc2=O)c1F` [Example 232, (R)-N-(1-(3-amino-5-(trifluoromethyl)phenyl)ethyl)-1-(2-fluoro-3-((2-methoxyethyl)carbamoyl)phenyl)-6-oxo-1,6-dihydropyridazine-3-carboxamide], the IC50 is under 1000 nM.

Molecule `C[C@@H](NC(=O)c1nn(-c2ccccc2)c(=O)c2ccsc12)c1cc(N)cc(C(F)(F)F)c1` [Example 317, N-[(1R)-1-[3-amino-5-(trifluoromethyl)phenyl]ethyl]-4-oxo-5-phenyl-thieno[2,3-d]pyridazine-7-carboxamide] had an IC50 of under 1000 nM.

In turn, `COc1ccc(-n2cc(C(=O)N[C@H](C)c3cccc(C(F)(F)CO)c3F)ccc2=O)cc1` [Example 203, N-[(1R)-1-[3-(1,1-difluoro-2-hydroxy-ethyl)-2-fluoro-phenyl]ethyl]-1-(4-methoxyphenyl)-6-oxo-pyridine-3-carboxamide] yielded an IC50 of under 1000 nM.

The molecule `C[C@@H](NC(=O)c1ccc(=O)n(-c2cccnc2F)n1)c1ccc(-c2cc(F)ccc2CN)s1` [Example 404] displayed an IC50 of under 1000 nM.

Take `C[C@@H](NC(=O)c1ccc(=O)n(-c2cnn(C)c2)c1)c1cccc(C(F)(F)CO)c1F` [Example 164, N-[(1R)-1-[3-(1,1-difluoro-2-hydroxy-ethyl)-2-fluoro-phenyl]ethyl]-1-(1-methylpyrazol-4-yl)-6-oxo-pyridine-3-carboxamide]: the IC50 was under 1000 nM.

Regarding `C[C@@H](NC(=O)c1nn(-c2ccccc2F)c(=O)c2ccsc12)c1cccc(C(F)(F)CO)c1F` [Example 310, N-[(1R)-1-[3-(1,1-difluoro-2-hydroxy-ethyl)-2-fluoro-phenyl]ethyl]-5-(2-fluorophenyl)-4-oxo-thieno[2,3-d]pyridazine-7-carboxamide], the IC50 is under 1000 nM.

In the case of `C[C@@H](NC(=O)c1ccc(=O)n(-c2ccccc2F)n1)c1cccc(C(F)(F)C(C)(C)O)c1F` [Example 192, N-[(1R)-1-[3-(1,1-difluoro-2-hydroxy-2-methyl-propyl)-2-fluoro-phenyl]ethyl]-1-(2-fluorophenyl)-6-oxo-pyridazine-3-carboxamide], the half-maximal inhibitory concentration (IC50) was under 1000 nM.

Molecule `C[C@@H](NC(=O)c1ccc(=O)n(-c2ccccc2F)n1)c1cccc(Oc2cccnc2)c1` [Example 305, 1-(2-fluorophenyl)-6-oxo-N-[(1R)-1-[3-(3-pyridyloxy)phenyl]ethyl]pyridazine-3-carboxamide] yielded an IC50 of over 10000 nM.

In turn, `C[C@@H](NC(=O)c1ccc(=O)n(-c2cccc(CO)c2)n1)c1cccc(C(F)(F)CO)c1F` [Example 170, N-[(1R)-1-[3-(1,1-difluoro-2-hydroxy-ethyl)-2-fluoro-phenyl]ethyl]-1-[3-(hydroxymethyl)phenyl]-6-oxo-pyridazine-3-carboxamide] gave an IC50 of under 1000 nM.

Turning to `C[C@@H](NC(=O)c1ccc(=O)n(-c2cccc(-c3nnnn3C)c2)c1)c1cc(N)cc(C(F)(F)F)c1` [Example 349, N-[(1R)-1-[3-amino-5-(trifluoromethyl)phenyl]ethyl]-1-[3-(1-methyltetrazol-5-yl)phenyl]-6-oxo-pyridine-3-carboxamide], the IC50 was under 1000 nM.

In the case of `C[C@@H](NC(=O)c1ccc(=O)n(-c2ccc(OC(F)(F)F)cc2)n1)c1cccc(C(F)(F)CO)c1F` [Example 202, N-[(1R)-1-[3-(1,1-difluoro-2-hydroxy-ethyl)-2-fluoro-phenyl]ethyl]-6-oxo-1-[4-(trifluoromethoxy)phenyl]pyridazine-3-carboxamide], the IC50 is under 1000 nM.

`C[C@@H](NC(=O)c1ccc(=O)n(-c2cnn(C)c2)c1)c1cc(N)cc(C(F)(F)F)c1` [Example 165, N-[(1R)-1-[3-amino-5-(trifluoromethyl)phenyl]ethyl]-1-(1-methylpyrazol-4-yl)-6-oxo-pyridine-3-carboxamide] returned an IC50 of under 1000 nM.

`C[C@@H](NC(=O)c1ccc(=O)n(CC2CC2)n1)c1cc(N)cc(C(F)(F)F)c1` [Example 224, N-[(1R)-1-[3-amino-5-(trifluoromethyl)phenyl]ethyl]-1-(cyclopropylmethyl)-6-oxo-pyridazine-3-carboxamide] registered an IC50 of under 1000 nM.

`CNCc1ccc(F)cc1-c1ccc([C@@H](C)NC(=O)c2ccc(=O)n(-c3cccnc3F)n2)s1` [Example 288, N-[(1R)-1-[5-[5-fluoro-2-(methylaminomethyl)phenyl]-2-thienyl]ethyl]-1-(2-fluoro-3-pyridyl)-6-oxo-pyridazine-3-carboxamide] had an IC50 of under 1000 nM.

With `CNCc1ccc(Cl)cc1-c1ccc([C@@H](C)NC(=O)c2ccc(=O)n(C3CCOCC3)n2)s1` [Example 411], the IC50 is under 1000 nM.

With `C[C@@H](NC(=O)c1nn(-c2ccccc2F)c(=O)c2cc[nH]c12)c1cccc(C(F)(F)CO)c1F` [Example 314, N-[(1R)-1-[3-(1,1-difluoro-2-hydroxy-ethyl)-2-fluoro-phenyl]ethyl]-5-(2-fluorophenyl)-4-oxo-1H-pyrrolo[2,3-d]pyridazine-7-carboxamide], the IC50 was under 1000 nM.

Consider `CNCc1cc(Cl)c(F)cc1-c1ccc([C@@H](C)NC(=O)c2ccc(=O)n(-c3cccnc3F)n2)s1` [Example 400, N-[(1R)-1-(5-{4-chloro-5-fluoro-2-[(methylamino)methyl]phenyl}thiophen-2-yl)ethyl]-1-(2-fluoropyridin-3-yl)-6-oxo-1,6-dihydropyridazine-3-carboxamide], for which the IC50 was under 1000 nM.

Still in this experiment, the particulars now being: read-out: KRAS ^G12C::SOS1 PPI assay (IC50 range, Grade); maximum concentration 3 µM, 8 concentrations, three replicates.
Take `CNCc1ccc(F)cc1-c1ccc([C@@H](C)NC(=O)c2ccc(=O)n(-c3cccnc3O)n2)s1` [Example 408]: the IC50 is under 1000 nM.

One may read the IC50 as the concentration needed to halve the response being measured.
